Experimental data: patent publication US20230135729A1, “COMPOUND WITH ANTI-SPORE ACTIVITY AND PHARMACEUTICAL COMPOSITION THEREOF” (priority 2020, published 2023)
Converted amounts (≈) assume the structure as drawn. Read-outs that look alike come from different tables or passages of the source.

Experiments:
Type in all cases: cell-based
[1] = test system: spores of ATCC BBA1870 strain; test: Inhibition of germination of C. difficile spores (MIC), strain ATCC BBA1870; details: Clostridioides difficile, ATCCBBA1870STRAIN, 1 h, read-out: MIC (minimum concentration that completely inhibits spore germination)
Protocol: (§1) According to a method disclosed in “The Journal of Infectious Diseases. 2013; 207: 1498-504”, spores of ATCC BBA1870, ATCC 43255 and ATCC 630 strains were obtained by culture and purification, and stored at 4° C.
(§2) Spore preparation: the C. difficile spores stored at 4° C. were heat-activated for 30 min at 65° C., centrifuged at 9,400 g for 2 min, and washed three times to remove any self-germinating spores.
(§3) Control drug: three cholic acid derivatives, a compound CamSA, a compound 20β (prepared by the method of “Journal of Medicinal Chemistry. 2017, 60 (8): 3451-3471”), and a compound 12a (prepared by the method of “Journal of Medicinal Chemistry. 2018, 61, 6759-6778”), were used as control drugs.
(§4) Compound preparation: the compound of the present disclosure, and the positive control drugs CamSA, 20β, and 12a were dissolved in DMSO, to prepare a stock solution with a concentration of 10 mM (prepared for immediate use).
(§5) The detection was conducted in a 96-well cell culture plate at a constant temperature of 37° C.; a final volume of each well of the 96-well plate was […] and a buffer was the BHIS medium; 150 μl of spores and drugs were added to the well in advance, and 50 μl of 4 mg/ml sodium taurocholate was added; OD580 was detected every 1 min immediately using a microplate reader, for continuously 60 min. A germination agent control group and a non-germination group were set up; after the detection, a final OD value of each well was compared with an initial value, and compared with the germination agent group to calculate a germination rate and an inhibition rate. A formula for the germination rate was:
(§6) Inhibition rate=100%−germination rate.

[2] = test system: spores of ATCC 43255 strain; test: Inhibition of germination of C. difficile spores (MIC), strain ATCC 43255; details: Clostridioides difficile, ATCC43255, 1 h, read-out: MIC (minimum concentration that completely inhibits spore germination)
Protocol: as §1, §2, §3, §4, §5, §6

[3] = test system: spores of ATCC 630 strain; test: Inhibition of germination of C. difficile spores (MIC), strain ATCC 630; details: Clostridioides difficile, ATCC630, 1 h, read-out: MIC (minimum concentration that completely inhibits spore germination)
Protocol: as §1, §2, §3, §4, §5, §6

[4] = strain 1870, sodium taurocholate as germinant, BHIS medium, 37° C., OD580 for 60 min
[5] = strain 43255, sodium taurocholate as germinant, BHIS medium, 37° C., OD580 for 60 min
[6] = strain 630, sodium taurocholate as germinant, BHIS medium, 37° C., OD580 for 60 min

Row | SMILES | MIC [1, 4] | MIC [2, 5] | MIC [3, 6] | MIC [1] | MIC [2] | MIC [3]
1 | C[C@H](CC(=O)NCc1ccccc1)[C@H]1CC[C@H]2[C@@H]3[C@H](O)C[C@@H]4C[C@H](O)CC[C@]4(C)[C@H]3CC[C@]12C [Compound I-4] | 32 µM (≈ 15 µg/mL) | 16 µM (≈ 7.48 µg/mL) | 8 µM (≈ 3.74 µg/mL) | – | – | –
2 | CC[C@@H](NC(=O)C[C@@H](C)[C@H]1CC[C@H]2[C@@H]3C(=O)C[C@@H]4C[C@H](OC)CC[C@]4(C)[C@H]3CC[C@]12C)c1ccc(Cl)s1 [Compound I-167] | 256 µM (≈ 140 µg/mL) | 128 µM (≈ 70.2 µg/mL) | 128 µM (≈ 70.2 µg/mL) | – | – | –
3 | CC[C@@H](NC(=O)C[C@@H](C)[C@H]1CC[C@H]2[C@@H]3C(=O)C[C@@H]4CC(=O)CC[C@]4(C)[C@H]3CC[C@]12C)c1ccccc1 [Compound I-60] | – | – | – | 2 µM (≈ 0.983 µg/mL) | 2 µM (≈ 0.983 µg/mL) | 2 µM (≈ 0.983 µg/mL)
4 | CC(C)[C@@H](NC(=O)C[C@@H](C)[C@H]1CC[C@H]2[C@@H]3C(=O)C[C@@H]4C[C@H](O)CC[C@]4(C)[C@H]3CC[C@]12C)c1ccc(Cl)s1 [Compound I-150] | 2 µM (≈ 1.1 µg/mL) | 2 µM (≈ 1.1 µg/mL) | 1 µM (≈ 0.548 µg/mL) | – | – | –
5 | CC[C@@H](NC(=O)C[C@@H](C)[C@H]1CC[C@H]2[C@@H]3[C@H](O)C[C@@H]4C[C@H](O)CC[C@]4(C)[C@H]3CC[C@]12C)c1ccc(Cl)s1 [Compound I-137] | 1 µM (≈ 0.536 µg/mL) | 1 µM (≈ 0.536 µg/mL) | 1 µM (≈ 0.536 µg/mL) | – | – | –
6 | CC[C@H](NC(=O)C[C@@H](C)[C@H]1CC[C@H]2[C@@H]3[C@H](OS(=O)(=O)O)C[C@@H]4CC(=O)CC[C@]4(C)[C@H]3CC[C@]12C)c1ccc(Br)s1 [Compound I-108] | > 256 µM | > 256 µM | > 256 µM | – | – | –
7 | CC(C)[C@@H](NC(=O)C[C@@H](C)[C@H]1CC[C@H]2[C@@H]3[C@H](N)C[C@@H]4CC(=O)CC[C@]4(C)[C@H]3CC[C@]12C)c1ccc(Cl)s1 [Compound I-174] | 32 µM (≈ 17.5 µg/mL) | 32 µM (≈ 17.5 µg/mL) | 32 µM (≈ 17.5 µg/mL) | – | – | –
8 | CC(=O)O[C@@H]1CC2=CC(=O)C=C[C@]2(C)[C@H]2CC[C@]3(C)[C@@H]([C@H](C)CC(=O)N[C@@H](c4ccc(Cl)s4)C(C)C)CC[C@H]3[C@H]12 [I-162 -1] | 0.25 µM (≈ 0.147 µg/mL) | 0.5 µM (≈ 0.293 µg/mL) | 0.5 µM (≈ 0.293 µg/mL) | – | – | –
9 | CCCCCCCC(=O)O[C@@H]1C[C@@H]2CC(=O)CC[C@]2(C)[C@H]2CC[C@]3(C)[C@@H]([C@H](C)CC(=O)N[C@@H](c4ccc(Cl)s4)C(C)C)CC[C@H]3[C@H]12 [Compound I-185] | 128 µM (≈ 86.3 µg/mL) | 128 µM (≈ 86.3 µg/mL) | 128 µM (≈ 86.3 µg/mL) | – | – | –
10 | C[C@H](CC(=O)NC(c1cccs1)c1cccs1)[C@H]1CC[C@H]2[C@@H]3C(=O)C[C@@H]4CC(=O)CC[C@]4(C)[C@H]3CC[C@]12C [Compound I-56] | 16 µM (≈ 8.83 µg/mL) | 16 µM (≈ 8.83 µg/mL) | 16 µM (≈ 8.83 µg/mL) | – | – | –
11 | CCC(NC(=O)C[C@@H](C)[C@H]1CC[C@H]2[C@@H]3C(=O)C[C@@H]4CC(=O)CC[C@]4(C)[C@H]3CC[C@]12C)c1ccc(Cl)s1 (stereo partly drawn) [Compound I-68] | 1 µM (≈ 0.532 µg/mL) | 2 µM (≈ 1.06 µg/mL) | 1 µM (≈ 0.532 µg/mL) | – | – | –
12 | CCCCCCCC(NC(=O)C[C@@H](C)[C@H]1CC[C@H]2[C@@H]3C(=O)C[C@@H]4CC(=O)CC[C@]4(C)[C@H]3CC[C@]12C)c1cccs1 (stereo partly drawn) [Compound I-45] | > 256 µM | > 256 µM | > 256 µM | – | – | –
13 | CC(C)[C@H](NC(=O)C[C@@H](C)[C@H]1CC[C@H]2[C@@H]3C(=O)C[C@@H]4CC(=O)CC[C@]4(C)[C@H]3CC[C@]12C)c1ccc(Br)s1 [Compound I-79] | 8 µM (≈ 4.73 µg/mL) | 8 µM (≈ 4.73 µg/mL) | 4 µM (≈ 2.36 µg/mL) | – | – | –
14 | C[C@H](CC(=O)NCc1ccco1)[C@H]1CC[C@H]2[C@@H]3[C@@H](O)C[C@@H]4C[C@H](O)CC[C@]4(C)[C@H]3CC[C@]12C [Compound I-11] | 64 µM (≈ 29.3 µg/mL) | 64 µM (≈ 29.3 µg/mL) | 64 µM (≈ 29.3 µg/mL) | – | – | –
15 | CC[C@@H](NC(=O)C[C@@H](C)[C@H]1CC[C@H]2[C@@H]3CC[C@@H]4C[C@H](O)CC[C@]4(C)[C@H]3CC[C@]12C)c1ccc(Br)s1 [Compound I-147] | 32 µM (≈ 18.1 µg/mL) | 16 µM (≈ 9.03 µg/mL) | 16 µM (≈ 9.03 µg/mL) | – | – | –
16 | CC(C)C(NC(=O)C[C@@H](C)[C@H]1CC[C@H]2[C@@H]3[C@H](OS(=O)(=O)O)C[C@@H]4CC(=O)CC[C@]4(C)[C@H]3CC[C@]12C)c1ccc(Cl)s1 (stereo partly drawn) [Compound I-110] | 1 µM (≈ 0.628 µg/mL) | 0.5 µM (≈ 0.314 µg/mL) | 1 µM (≈ 0.628 µg/mL) | – | – | –
17 | C[C@H](CC(=O)NC(c1cccs1)C1CC1)[C@H]1CC[C@H]2[C@@H]3[C@H](O)C[C@@H]4CC(=O)CC[C@]4(C)[C@H]3CC[C@]12C (stereo partly drawn) [Compound I-85] | 0.5 µM (≈ 0.256 µg/mL) | 0.5 µM (≈ 0.256 µg/mL) | 0.5 µM (≈ 0.256 µg/mL) | – | – | –
18 | CC[C@H](NC(=O)C[C@@H](C)[C@H]1CC[C@H]2[C@@H]3C[C@H](O)[C@@H]4CC(=O)CC[C@]4(C)[C@H]3CC[C@]12C)c1ccc(Cl)s1 [Compound I-129] | 4 µM (≈ 2.14 µg/mL) | 2 µM (≈ 1.07 µg/mL) | 2 µM (≈ 1.07 µg/mL) | – | – | –
19 | CC(C)C(NC(=O)C[C@@H](C)[C@H]1CC[C@H]2[C@@H]3C(=O)C[C@@H]4CC(=O)CC[C@]4(C)[C@H]3CC[C@]12C)c1cccs1 (stereo partly drawn) [Compound I-40] | 4 µM (≈ 2.05 µg/mL) | 2 µM (≈ 1.02 µg/mL) | 2 µM (≈ 1.02 µg/mL) | – | – | –
20 | C[C@H](CC(=O)NCc1ccco1)[C@H]1CC[C@H]2[C@@H]3C(=O)C[C@@H]4C[C@H](O)CC[C@]4(C)[C@H]3CC[C@]12C [Compound I-13] | 16 µM (≈ 7.29 µg/mL) | 16 µM (≈ 7.29 µg/mL) | 16 µM (≈ 7.29 µg/mL) | – | – | –
21 | CCC(NC(=O)C[C@@H](C)[C@H]1CC[C@H]2[C@@H]3[C@H](OS(=O)(=O)O)C[C@@H]4CC(=O)CC[C@]4(C)[C@H]3CC[C@]12C)c1ccc(Br)s1 (stereo partly drawn) [Compound I-107] | 1 µM (≈ 0.659 µg/mL) | 1 µM (≈ 0.659 µg/mL) | 1 µM (≈ 0.659 µg/mL) | – | – | –
22 | CC(C)[C@@H](NC(=O)C[C@@H](C)[C@H]1CC[C@H]2[C@@H]3[C@H](OS(=O)(=O)O)C[C@@H]4CC(=O)CC[C@]4(C)[C@H]3CC[C@]12C)c1ccc(Cl)s1 [Compound I-112] | 0.5 µM (≈ 0.314 µg/mL) | 0.25 µM (≈ 0.157 µg/mL) | 0.5 µM (≈ 0.314 µg/mL) | – | – | –
23 | CC(C)[C@@H](NC(=O)C[C@@H](C)[C@H]1CC[C@H]2[C@@H]3[C@H](O)CC4=CC(=O)CC[C@]4(C)[C@H]3CC[C@]12C)c1ccc(Br)s1 [Compound I-156-2] | 0.25 µM (≈ 0.148 µg/mL) | 0.5 µM (≈ 0.295 µg/mL) | 0.25 µM (≈ 0.148 µg/mL) | – | – | –
24 | C[C@H](CC(=O)NCc1nccs1)[C@H]1CC[C@H]2[C@@H]3[C@H](O)C[C@@H]4C[C@H](O)CC[C@]4(C)[C@H]3CC[C@]12C [Compound I-7] | 16 µM (≈ 7.6 µg/mL) | 16 µM (≈ 7.6 µg/mL) | 16 µM (≈ 7.6 µg/mL) | – | – | –
25 | CC(C)[C@@H](NC(=O)C[C@@H](C)[C@H]1CC[C@H]2[C@@H]3[C@H](O)C[C@@H]4CC(=O)CC[C@]4(C)[C@H]3C[C@H](O)[C@]12C)c1ccc(Br)s1 [Compound I-166] | 64 µM (≈ 39 µg/mL) | 32 µM (≈ 19.5 µg/mL) | 32 µM (≈ 19.5 µg/mL) | – | – | –
26 | CC(C)C(NC(=O)C[C@@H](C)[C@H]1CC[C@H]2[C@@H]3C[C@H](O)[C@@H]4CC(=O)CC[C@]4(C)[C@H]3CC[C@]12C)c1ccc(Br)s1 (stereo partly drawn) [Compound I-130] | 4 µM (≈ 2.37 µg/mL) | 4 µM (≈ 2.37 µg/mL) | 4 µM (≈ 2.37 µg/mL) | – | – | –
27 | CC(C)C(NC(=O)C[C@@H](C)[C@H]1CC[C@H]2[C@@H]3[C@H](OS(=O)(=O)O)C[C@@H]4CC(=O)CC[C@]4(C)[C@H]3CC[C@]12C)c1ccc(Br)s1 (stereo partly drawn) [Compound I-113] | 1 µM (≈ 0.673 µg/mL) | 0.5 µM (≈ 0.336 µg/mL) | 1 µM (≈ 0.673 µg/mL) | – | – | –
28 | CCC(NC(=O)C[C@@H](C)[C@H]1CC[C@H]2[C@@H]3[C@H](O)C[C@@H]4CC(=O)CC[C@]4(C)[C@H]3CC[C@]12C)c1ccc(Br)s1 (stereo partly drawn) [Compound I-89] | 0.5 µM (≈ 0.289 µg/mL) | 0.5 µM (≈ 0.289 µg/mL) | 0.5 µM (≈ 0.289 µg/mL) | – | – | –
29 | CC[C@@H](NC(=O)C[C@@H](C)[C@H]1CC[C@H]2[C@@H]3[C@H](O)C[C@@H]4CC(=O)CC[C@]4(C)[C@H]3CC[C@]12C)c1cccs1 [Compound I-133] | 2 µM (≈ 1 µg/mL) | 2 µM (≈ 1 µg/mL) | 2 µM (≈ 1 µg/mL) | – | – | –
